In patent US20100298420A1, “Compositions and Methods for Intracellular Delivery” (Yissum, Research Development Company of the Hebrew …, priority 2001, published 2010):

How the values were obtained:
Assay type in all cases: cell-based
[1] = tested on: Bacillus Subtilis ATCC-6633; experiment: Susceptibility testing, zone of inhibition on agar; conditions: 37° C., 24 h
Method: (§1) Various concentrations of erythromycin in sterile water (1.25, 7.5, 10, 12.5 μg/ml) The bacterial strains used were:
(§2) Each erythromycin concentration was mixed with Composition I, Composition II and Standard solution with phosphate buffer saline (PBS, Biological Industries, Beit HaEmek Israel 1:1 by volume. 20 μl of Compositions I-II and standards containing various antibiotic concentrations was added to 6 mm wells on Petri plates containing Tryptic Soy Agar (TSA) inoculated with the microorganisms. The preparation was incubated aerobically at 37° C. for 24 h. The zone of inhibition for each sample was measured.

[2] = tested on: Staphylococcus Aureus ATCC-29213; experiment: Susceptibility testing, zone of inhibition on agar; conditions: 37° C., 24 h, in mm
Method: as §1, §2

[3] = tested on: Staphylococcus Aureus erythromycin resistant (clinical strain); experiment: Susceptibility testing, zone of inhibition on agar; conditions: 37° C., 24 h
Method: as §1, §2

[4] = tested on: Swiss albino mouse fibroblast cells (3T3); experiment: CLSM experiment: intracellular delivery of fluorescent probes
Method: Subconfluent Swiss albino mouse fibroblast cells (3T3) were grown in Dulbeco's Modified Eagles Medium (DMEM) on coverslips in wells of 3.5 cm in diameter for Confocal Laser Scanning Microscopy (CLSM) and in six-well plastic plates for flow cytometric analysis. The cells were washed twice with phosphate buffered saline (PBS), adjusted to 37° C. in the incubator, and washed again. Two ml of PBS were added to each well and 50 μl of the test solution was added (Compositions I-III, control systems A-B or any compositions containing PC*, RR or D-289 listed above). […] The coverslip were observed under a Sarastro-Phibos1000 CLS microscope equipped with a 488 nm argon ion laser beam and attached to a Universal Zeiss epifluorescence microscopy with an oil immerse Planapo 63×1.4 NA objective lens. Fluorescence emission was detected above 560 nm for RR, at 527 nm for D-289 and […] for calcein.

[5] = Erythromycin conc. 10 microgram/ml

SMILES	zone of inhibition at 1.25 µg/mL ([1]; ATCC6633, Erythromycin conc. 1.25 microgram/ml) [mm]	zone of inhibition at 7.5 µg/mL ([1]; ATCC6633, Erythromycin conc. 7.5 microgram/ml) [mm]	Zone of inhibition ([2]; Erythromycin conc. 1.25 microgram/ml)	Zone of inhibition [2, 5]	zone of inhibition at 10 µg/mL [3, 5] [mm]	zone of inhibition at 12.5 µg/mL ([3]; Erythromycin conc. 12.5 microgram/ml) [mm]	Fluorescence in the nucleus of the cell [4]
CC[C@H]1OC(=O)[C@H](C)[C@@H](O[C@H]2C[C@@](C)(OC)[C@@H](O)[C@H](C)O2)[C@H](C)[C@@H](O[C@@H]2O[C@H](C)C[C@H](N(C)C)[C@H]2O)[C@](C)(O)C[C@@H](C)C(=O)[C@H](C)[C@@H](O)[C@]1(C)O [Standard, Erythromycin]	7.83 ± 0.26	13.6 ± 0.38	0	13.67 ± 026	0	7.67 ± 0.26	
CCN(CC)c1ccc(C=Cc2cc[n+](C)cc2)cc1.[I-] [Composition D-289, 4-(4-diethylamino)styryl-N-methylpyridinium iodode]							fluorescence was also observed in the nucleus
